Laboratory results reported in US20230072421A1, “TARGETED RADIOPHARMACEUTICALS FOR THE DIAGNOSIS AND TREATMENT OF PROSTATE CANCER” (Bayer AS, priority 2019, published 2023).

Experiments:
[1] = molecular target: T1, PSMA-expressing LNCaP cells (Homo sapiens, UniProt Q04609); experiment: Binding competition assay against 3H-PSMA-617 on LNCaP cells; settings: LNCaP cells, 10 nM 3H-PSMA-617, 2 h at 37° C., triplicates
T1 construct: PSMA-expressing LNCaP cells; endogenous in cells; host or cells: LNCaP
T1 sequence (Q04609 whole entry): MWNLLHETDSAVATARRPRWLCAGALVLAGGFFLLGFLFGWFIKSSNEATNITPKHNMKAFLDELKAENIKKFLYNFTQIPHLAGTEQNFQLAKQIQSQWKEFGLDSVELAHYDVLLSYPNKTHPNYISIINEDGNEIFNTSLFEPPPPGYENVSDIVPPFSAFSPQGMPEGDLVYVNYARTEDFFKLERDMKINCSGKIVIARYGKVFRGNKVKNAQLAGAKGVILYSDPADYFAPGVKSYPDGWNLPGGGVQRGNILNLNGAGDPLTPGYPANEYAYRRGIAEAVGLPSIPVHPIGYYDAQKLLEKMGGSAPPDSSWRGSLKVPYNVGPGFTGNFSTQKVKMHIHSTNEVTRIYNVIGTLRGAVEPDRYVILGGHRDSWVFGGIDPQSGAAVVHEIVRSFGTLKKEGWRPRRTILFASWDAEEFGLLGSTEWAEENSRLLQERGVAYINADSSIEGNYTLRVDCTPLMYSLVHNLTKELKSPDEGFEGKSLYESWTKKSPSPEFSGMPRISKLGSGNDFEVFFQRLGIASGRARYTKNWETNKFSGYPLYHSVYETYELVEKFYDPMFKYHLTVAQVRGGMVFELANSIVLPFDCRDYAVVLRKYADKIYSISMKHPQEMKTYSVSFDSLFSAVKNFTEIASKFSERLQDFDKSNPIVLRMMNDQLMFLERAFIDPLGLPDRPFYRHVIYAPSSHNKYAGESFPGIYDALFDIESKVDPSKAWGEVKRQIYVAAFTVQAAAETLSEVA
Summary of the method: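 Compounds added to LNCaP cells in growth medium, 2 h at 37 °C, 5% CO2. After two ice-cold PBS washes, cells lysed in 0.3 M NaOH and bound radioactivity measured by liquid scintillation counting.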

[2] = tested on: VCap, C4-2, 22Rv1 and LnCap cells; experiment: Cell proliferation assay, summary statements over several cell lines; format: cell-based; settings: for antiproliferative activity on VCap, C4-2, 22Rv1 and LnCap cells (in words): 227Th-labelled compounds bearing the HOPO chelator Example A
Experimental: (§1) Inhibition of cell proliferation of Thorium-227 labeled PMSA SMOL ligands was tested different prostate cancer cell lines, namely 22Rv1, VCaP, C4-2 (all from ATCC, Manassas, Va., USA) and LNCaP (DMSZ, Braunschweig). Cells were seeded using the following conditions in 384 well plates (Corning) in 30 μl of growth media at 4000 cells/well for VCaP cells and 1000 cells/well for 22Rv1, C4-2 and LNCaP cells.
Cells were cultivated an incubator at 37° C. and 5% C02 over night. […] In sister plates cell viability at treatment start (d=0) was determined using CellTiter-Glo® assay (CTG, Promega, Madison, Wis., USA), by adding 30 μl per well CTG solution, incubation for 10 min and reading of Luminescence in a PheraStarFSX instrument (BMG Labtech). After a 5-day exposure in the presenced of test compounds, cell viability of treated or untreated control cells was determined again using CellTiter-Glo® assay (Promega, Madison, Wis., USA). […] The DRC software is a Biobook Spreadsheet that was developed by Bayer AG and Bayer Business Services on the IDBS E-Workbook Suite platform (IDBS: ID Business Solutions Ltd., Guildford, UK).

[3] = tested on: VCaP cells; experiment: Cell proliferation assay (CellTiter-Glo, 5-day exposure), VCaP; format: cell-based; settings: 4000 cells/well, Th-227 labelled at 375 kBq/nmol, mean of 1 to 6 experiments
Summary of the method: (§2)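 Prostate cancer cells (VCaP 4000/well; 22Rv1, C4-2, LNCaP 1000/well), Th-227-labelled PSMA ligands, 5-day exposure; viability by CTG at start and end.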

[4] = tested on: C4-2 cells; experiment: Cell proliferation assay (CellTiter-Glo, 5-day exposure), C4-2; format: cell-based; settings: C4-2, 1000 cells/well, Th-227 labelled at 375 kBq/nmol, mean of 1 to 6 experiments
Summary of the method: as §2

[5] = tested on: 22Rv1 cells; experiment: Cell proliferation assay (CellTiter-Glo, 5-day exposure), 22Rv1; format: cell-based; settings: 22Rv1, 1000 cells/well, Th-227 labelled at 375 kBq/nmol, mean of 1 to 6 experiments
Summary of the method: as §2

[6] = tested on: LNCaP cells; experiment: Cell proliferation assay (CellTiter-Glo, 5-day exposure), LNCaP; format: cell-based, human; settings: LNCaP, 1000 cells/well; Th-227 labelled at 375 kBq/nmol; 5-day exposure; mean of 1 to 6 experiments
Experimental: as §1
Cells were cultivated an incubator at 37° C. and 5% C02 over night. On the following days cells were treated in triplicates with serial dilutions of PSMA-SMOLs labeled with Th-227 at a specific activity of 375 kBq/nmol (RCP>70% as assessed by iTLC analysis; compounds where RCP was between 50-70% in individual experiments are marked with an * in the table) using a D300e Digital Dispenser (Tecan). In sister plates cell viability at treatment start (d=0) was determined using CellTiter-Glo® assay (CTG, Promega, Madison, Wis., USA), by adding 30 μl per well CTG solution, incubation for 10 min and reading of Luminescence in a PheraStarFSX instrument (BMG Labtech). After a 5-day exposure in the presenced of test compounds, cell viability of treated or untreated control cells was determined again using CellTiter-Glo® assay (Promega, Madison, Wis., USA). […] The DRC software is a Biobook Spreadsheet that was developed by Bayer AG and Bayer Business Services on the IDBS E-Workbook Suite platform (IDBS: ID Business Solutions Ltd., Guildford, UK).

[7] = molecular target: T1, PSMA-expressing LNCaP cells; experiment: Internalization assay (membrane bound and internalized Th-227); format: cell-based; settings: 10 nM radiolabeled compound, Th-227 at 375 kBq/nmol, triplicates
Experimental: For internalization assays 24 well plates (#3526, Corning) were coated with 200 μl Poly-L-Lysine (0.1 mg/ml, #3438-100-01, Fa. Cultrex) per well for 2 h at 37° C. […] Cells were incubated at 37° C. and 5% CO2 over night. On the following day 400 μl of the media were removed and a total of 200 μl growth medium added supplemented with PSMA-SMOLs labeled with Th-227 at 375 kBq/nmol in triplicates. Radiochemical purity of the labeling was analyzed by instant thin layer chromatography and found to be above 70% for all compounds used. The final concentration of radiolabeled SMOLs was in the test wells was 10 nM. Cells were incubated for 30 min or 2 h. After the incubation time supernatants were taken off and cells washed with PBS. Thereafter cells were washed twice with 0.2 ml 50 mM Glycine-HCl buffer (#55097, Sigma Aldrich) and once with PBS and the washing solutions combined in counting vials (#TK75-018, Fa. Corning) and subjected to gamma counting (1470 Wizard automatic gamma counter, Wallac). The resulting counts were attributed to membrane bound radioactivity. Cells were then lysed with 500 μl 0.3N NaOH (#181691.1211, Fa. PanReac AppliChem ITW Reagents) followed by another wash with 500 μl PBS. The NaOH lysate as well as the final wash were combined in vials and subjected to gamma counting as described above. Measured radioactivity was attributed to internalized fraction. Results were calculated as fmol of Th-227 per/10^cells in the membrane bound and internalized fractions from triplicate values.

[8] = tested on: LNCaP human prostate cancer cells; experiment: LNCaP xenograft efficacy study (T/C tumor area); format: in vivo, SCID mice
Summary of the method: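 SCID mice with testosterone pellet bearing s.c. flank LNCaP xenografts (5×10^6 cells in Matrigel) were treated i.v. with a defined radioactive dose once tumors reached 35-50 mm^2 (n=10/group). Tumor area (caliper, longest diameter × perpendicular) measured 2-3× weekly; T/C ratio calculated from tumor areas when vehicle group closed.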

| remaining activity at 0.01 µM ([1]; competing non-radiolabeled compound 10 nM) | remaining activity at 0.1 µM ([1]; competing non-radiolabeled compound 100 nM) | Compound | antiproliferative activity on VCap, C4-2, 22Rv1 and LnCap cells (in words) [2] | Proliferation assay on cancer cell lines by TTCs Default Pivot #3 IC50 [kBq/mL] VCap 4000cells 375kBq/nmol (mean) [3] | Proliferation assay on cancer cell lines by TTCs Default Pivot #3 IC50 [kBq/mL] C4-2 1000cells 375kBq/nmol (mean) [4] | Proliferation assay on cancer cell lines by TTCs Default Pivot #3 IC50 [kBq/mL] 22Rv1 1000cells 375kBq/nmol (mean) [5] | Proliferation assay on cancer cell lines by TTCs Default Pivot #3 IC50 [kBq/mL] LnCap 1000cells 375kBq/nmol (mean) [6] | Internalized in LNCaP fmol/10^6 cells 30 min ([7]; 30 min incubation) | Membrane bound in LNCaP fmol/10^6 cells 30 min ([7]; 30 min incubation) | Internalized in LNCaP fmol/10^6 cells 2 h ([7]; 2 h incubation) | Membrane bound in LNCaP fmol/10^6 cells 2 h ([7]; 2 h incubation) | T/Carea ([8]; Example I, day 27, 1 x 750 kBq/kg) | T/Carea ([8]; Example IV, day 36 after start of therapy, once 1 MBq/kg) | T/Carea ([8]; Example V, day 27 after start of therapy, once 750 kBq/kg) | antiproliferative activity on VCap and C4-2 cells (in words) ([2]; 227Th-labelled compounds, in comparison to 227Th-labelled examples 1-C monomer, dimer, trimer and tetramer) |
| --- | --- | --- | --- | --- | --- | --- | --- | --- | --- | --- | --- | --- | --- | --- | --- |
| 42% | 8% | Cc1cc(C(=O)NCCN(CCCN(CCNC(=O)c2cc(C)n(CC(=O)O)c(=O)c2O)CCNC(=O)c2cc(C)n(CC(=O)NC[C@H]3CC[C@H](C(=O)N[C@@H](Cc4ccc5ccccc5n4)C(=O)NCCCC[C@H](NC(=O)N[C@@H](CCC(=O)O)C(=O)O)C(=O)O)CC3)c(=O)c2O)CCNC(=O)c2cc(C)n(CC(=O)O)c(=O)c2O)c(O)c(=O)n1CC(=O)O [Example 17-C monomer] | high antiproliferative activity |  |  |  |  |  |  |  |  |  |  |  |  |
|  |  | Cc1cc2c(c(=O)n1CC(=O)O)[O][227Th]13[O]c4c(cc(C)n(CC(=O)O)c4=O)C(=O)NCCN(CCCN(CCNC(=O)c4cc(C)n(CC(=O)O)c(=O)c4[O]1)CCNC(=O)c1cc(C)n(CC(=O)NCc4ccc(C(=O)N[C@@H](Cc5ccc6ccccc6n5)C(=O)NCCCC[C@H](NC(=O)N[C@@H](CCC(=O)O)C(=O)O)C(=O)O)nc4)c(=O)c1[O]3)CCNC2=O [34-C monomer-227Th] |  | 0.99 kBq/mL | 0.15 kBq/mL | 1.28 kBq/mL | 0.02 kBq/mL | 75 fmol/10^6 cells | 147 fmol/10^6 cells | 325 fmol/10^6 cells | 359 fmol/10^6 cells | 0.37 | 0.51 | 0.37 |  |
|  |  | Cc1cc2c(c(=O)n1CC(=O)O)[O][227Th]13[O]c4c(cc(C)n(CC(=O)O)c4=O)C(=O)NCCN(CCCN(CCNC(=O)c4cc(C)n(CC(=O)O)c(=O)c4[O]1)CCNC(=O)c1cc(C)n(CC(=O)NCc4ccc(C(=O)N[C@@H](Cc5ccc6ccccc6n5)C(=O)NCCCC[C@H](NC(=O)N[C@@H](CCC(=O)O)C(=O)O)C(=O)O)nc4)c(=O)c1[O]3)CCNC2=O [34-C monomer] | high antiproliferative activity |  |  |  |  |  |  |  |  |  |  |  | improved antiproliferative activity |
